Reference: patent US20240159750A1, “METHODS FOR DIAGNOSIS AND TREATMENT OF COVID-19” (priority 2021, published 2024)

Legend:
[1] = system: hospitalized COVID-19 patients; conditions: interim report, WHO solidarity trial; cited from earlier work
C2 and PC cells = type: cell-based, rat; conditions: serum-starved C2 cells (TYMP-overexpressing VSMC)

Compound: CCN(CCO)CCCC(C)Nc1ccnc2cc(Cl)ccc12 (stereo not drawn) [hydroxychloroquine]
- effect on hospitalized COVID-19 patients [1]: little or no effect

Compound: Cc1cccc(C)c1OCC(=O)N[C@@H](Cc1ccccc1)[C@@H](O)C[C@H](Cc1ccccc1)NC(=O)[C@H](C(C)C)N1CCCNC1=O [lopinavir]
- effect on hospitalized COVID-19 patients [1]: little or no effect

Compound: Pam3CSK4
- NF-κB activation (p65 phosphorylation at T254) (C2 and PC cells): dramatically increased
